Measured values from patent US11154551B2, “HDAC1,2 inhibitors and methods of using the same” (UNIVERSITY OF UTAH RESEARCH FOUNDATION, priority 2014, dated 2021).
Entries after “also recorded” stand apart in the source; their conditions may differ.

Assays:
[1] = test system: Karpas-422 (EZH2GOF) cells; experiment: neutral comet assay of DSB repair; format: cell-based, human
Description: (A) Measurement of repair efficiency in SUDHL5 (EZH2^WT) and Karpas-422 (EZH2^GOF) cells using neutral comet assay that detects only double-strand breaks (DSBs). In the comet, the head (H) represents intact DNA and the tail (T) represents the number of DSBs in a single cell. Tail moment is a measure of length and intensity of DNA in the tail, and the average tail moments from 100 comets are indicated within the figure for each cell/treatment combination. Doxo indicates doxorubicin; H121N indicates HDAC1,2 inhibitor. (B) DNA damage in EZH2GOF cells following knockdown of HDAC1,2 using siRNA. NT indicates non-targeting control siRNA; HDAC1,2 siRNA indicates combined treatment with HDAC1 siRNA and HDAC2 siRNA. (C) Karpas-422 cells treated with DMSO solvent or HDAC1,2 inhibitor were subjected to microlaser irradiation. H3K27me3, γH2AX, Bmi-1, and serine2-phosphorylated RNA Polymerase II (engaged in transcriptional elongation) were monitored at laser break sites (arrows) after 15 minutes of recovery time. Numbers overlaying the images indicate percentages of cells with γH2AX lines that co-localized with H3K27me3, Bmi-1, or Pol2Ser2-P lines from at least four independent experiments (p value<0.01).
Indeed, EZH2, H3K27me3, and HDAC1,2 all localize to sites of DNA breaks, which links them to DNA repair. […]

[2] = test system: Ph+ALL patient derived xenograft; experiment: Ph+ALL patient-derived xenograft mouse model; format: in vivo; conditions: for human CD45 and CD19 markers in bone marrow: 25 mg/kg ACY1035 every other day i.p., 0.25 mg/kg doxorubicin once a week i.v., vs solvent; for white cell burden: vs solvent-treated mice
Protocol: Patient-derived xenograft mice were treated with either cyclodextrin (solvent) or 25 mg/kg ACY1035 every other day for a total of 21 doses. (A) The level of human CD19, CD45, and CD34 markers were assessed in the bone marrow of these mice by FACS analysis. For each FACS marker, the bars represent (from left to right): solvent, ACY1035, doxorubicin, ACY1035+doxorubicin. (B) Solvent-treated mice have bones infiltrated with white blood cells.
Additional experiments were performed to assess the therapeutic benefits of HDAC1,2 inhibition in vivo using primary Ph+ALL patient derived xenograft mouse models. NOD/SCID mice were irradiated with a sub lethal dose of irradiation to ablate the immune system in these mice. Immune-compromised NSG mice were then injected with 2×10^6 CD34+ cells isolated from a Ph+ ALL patient. Bone and spleens were harvested from these primary xenograft mice when the leukemia burden reached the maximum 90-95% level as determined by FACS analysis for human CD19 and CD45 markers. Cells isolated from bone marrow and spleen of these primary xenograft mice were frozen in liquid nitrogen until use. A mixture of bone marrow and spleen cells from the primary xenograft mice was then injected into a cohort of sub-lethally irradiated NOD/SCID mice. Mice were divided into four treatment groups: solvent, ACY1035, doxorubicin, and ACY1035 plus doxorubicin. Xenograft mice were injected according to one of the four treatment groups after 5 days post-xenograft induction, when human CD45 marker reached around 5-10% in the peripheral blood. Mice were injected with 25 mg/kg ACY1035 every other day via i.p. and 0.25 mg/kg doxorubicin once a week via i.v., a dosing schedule that has minimal toxicity in immune compromised mice.
In this PDX model, the majority of leukemia cells homed in the bone marrow and not spleen. […] Furthermore, a decrease in human CD34+ stem/progenitor cells was observed similar to the results obtained from in vitro studies (FIG. 33A). […] The disclosed mechanistic and preclinical results provide strong evidence that HDAC1,2 inhibition or HDAC1,2 inhibition in combination with doxorubicin can provide a very potent therapeutic for Ph+PreB-ALL.

[3] = test system: normal NOD-SCID-Gamma mice; experiment: hematoxylin and eosin staining of bone marrow and spleen, toxicity; conditions: 25 mg/kg ACY1035 (fifteen doses) or 0.5 mg/kg doxorubicin (six doses)
[4] = test system: doxorubicin-resistant EZH2GOF DLBCL (Karpas-422/NSG); experiment: Karpas-422/NSG xenograft mouse model; format: in vivo; conditions: seventeen doses of ACY1035, five doses of doxorubicin
Protocol: (C) FACS analyses of human CD19 and IgM markers in peripheral blood of Karpas-422/NSG xenograft mice treated with solvent or doxorubicin (Doxo) or the HDAC1,2 inhibitor ACY1035 (H12IN). Seventeen doses of HDAC1,2 inhibitor and five doses of doxorubicin were administered.
The in vivo testing used a doxorubicin-resistant EZH2^GOF DLBCL (Karpas-422/NSG) mouse model and a doxorubicin-sensitive EZH2^WT DLBCL (SUDHL8/NSG) mouse model (FIG. 36). To create these models, NOD-SCID-Gamma (NSG) mice were injected intravenously (i.v.) with 1×10^6 Karpas-422 cells (chemoresistant and expressing the EZH2 gain-of-function mutant) or SUDHL8 cells (chemosensitive and expressing wild-type EZH2).

[5] = test system: SupB15 Pre-B-ALL leukemia xenograft; experiment: SupB15 Pre-B-ALL leukemia xenograft mice; format: in vivo, mouse; conditions: same concentration of doxorubicin
Description: Pre-B-ALL cell lines as well as Ph+ALL primary patient samples were engrafted in NOD scid gamma (NSG) mice to examine the efficacy of Hdac1,2 inhibitor in killing cells in vivo. We injected NSG mice with SupB15 cells (1×10^6) and Ph+Pre-B-ALL primary patient cells and monitored engraftment by flow cytometry using anti-human CD45/CD19 antibodies every week for 4-5 weeks. […] To examine the extent of leukemia infiltration in spleen and bone marrow, we performed IHC analysis.

Karpas-422 cells = experiment: propidium-iodide / BrdU-PI cell cycle analysis; format: cell-based, human; conditions: 48 h
Protocol: (B): Quantitation of the cell cycle data in (A), compiled from three independent analyses. The graphs plotted the average percentage of cells in each phase of the cell cycle. […] (C): FACS analysis following BrdU-PI staining of Karpas-422 and SUDHL4 cells was performed following a 48 h or 72 h treatment with ACY-957.
Cell cycle analysis of propidium-iodide stained cells was performed with fixed cells. […] (C): FACS analysis following BrdU-PI staining of Karpas-422 and SUDHL4 cells was performed following a treatment with 2 μM ACY-957, 50 nM doxorubicin or both for 48 h.
(B): Quantitation of the cell cycle analysis performed in (A). Data from three independent cell cycle analyses were compiled and average percentage cells with standard errors were shown in this panel.
Propidium-iodide Cell Cycle Analysis.
Since these DLBCL cells expressed a hyperactive form of EZH2, pharmacological inhibition of EZH2 activity was considered a therapeutic strategy. […] GSK126 was a S-adenosyl-methionine-competitive inhibitor of EZH2 methyltransferase activity, and DZNep was a S-adenosylhomocysteine hydrolase inhibitor that disrupted the components of the PRC2 complex, thereby causing reduced chromatin-associated EZH2 levels.
To test this possibility, cell cycle analysis following treatment of Karpas-422 with ACY-957, doxorubicin, or ACY-957 in combination with doxorubicin was performed.

SupB15 cells [6] = experiment: BrdU ChIP assay, γH2AX on nascent chromatin; format: cell-based, human
Description: The majority of chromatin-bound proteins that decreased following ACY1035 plus doxorubicin treatment compared to ACY1035 treatment alone belong to DNA replication and DNA replication-associated repair processes (FIGS. 29A and 29B).

Hdac1,2 = experiment: in vitro enzyme assays, IC50 determination (FIG. 17A); format: biochemical
Protocol: (A). For IC50 determination, recombinant HDAC enzymes were treated with HDAC1,2 or HDAC3 inhibitors in in vitro HDAC assays. (B). Western blots for H3K23ac using extracts from Pre-B-ALL SupB15 cells treated with increasing dose of HDAC1,2 inhibitor (ACY1035). (C). Hdac1^FI/FI, 2^FI/FI cells were infected with Ad-Cre virus to delete HDAC1 and HDAC2 (HDAC1,2 null) or uninfected (WT). (D). Hdac3^FI/FI cells were either uninfected (WT) or infected with Ad-Cre virus to delete Hdac3. HDAC3-null cells were treated with DMSO or the HDAC1,2 selective inhibitor.
We have determined 2 μM (FIG. 17B) as the minimum dose for the ACY compounds, respectively, that when added to cells increased H3K23ac (a mark targeted by Hdac1,2 but not Hdac3).

[7] = test system: normal NOD-SCID-Gamma mice; conditions: mouse
[8] = test system: SupB15 (Ph+PreB-ALL) cells; experiment: γH2AX immunofluorescence; format: cell-based, human; conditions: 2 μM, 48 hours
Protocol: (§1) SupB15 cells were treated with 2 μM ACY1035, ACY1071, ACY957, or solvent (DMSO) for 48 hours. (A) Immunofluorescence with γH2AX was performed on treated SupB15 cells. The number of γH2AX foci was counted in around 100 cells for each treatment and classified into cells with no foci, 1-5, 6-10, and greater than 10 foci. (B) SupB15 cells treated with DMSO or ACY1035 for 48 hours were tested via neutral comet assay to measure the amount of double-strand breaks (DSBs), indicated by the tail.
BCR-ABL promotes DNA repair to prevent DNA damage accumulation in Philadelphia chromosome-positive (Ph+) leukemia cells. To examine the effect of various HDAC1,2-selective inhibitors on DNA repair and DNA damage response in Pre-B-ALL cells that express BCR-ABL, SupB15 (Ph+PreB-ALL) cells were treated with 2 μM ACY1035 or 2 μM ACY1071 or 2 μM ACY957 for 48 hours.

SupB15 cells [9] = experiment: neutral comet assay; format: cell-based, human; conditions: 48 hours
Protocol: as §1
We next asked whether double-strand break repair is impaired in SupB15 cells. We used neutral comet assays to measure the efficiency of double-strand break repair following treatment with ACY1035 for 48 hours. The neutral comet assay specifically measures double-strand breaks and not single-strand breaks. In this assay, control and HDAC1,2 inhibitor treated SupB15 cells were embedded in low melting agarose and subjected to electrophoresis to separate damaged DNA from intact DNA. Damaged DNA runs faster and therefore forms a tail, and the intact DNA is present in the head (FIG. 24B). DNA was visualized with sybrgreen staining.

[10] = test system: non-transformed, mouse bone marrow Pro-B derived Baf3 cells or cord blood stem cells; experiment: cell death in non-transformed cells; format: cell-based; conditions: 2 μM, within 72 hr
Description: Therefore, transformed lymphoma cells are more sensitive to HDAC1,2 inhibition when compared to the untransformed normal B-cells. HDAC1,2 inhibitor causes replication fork collapse in S-phase to trigger DNA damage response, and transformed cancer cells have increased DNA replication when compared to normal B cells. […] In addition to this property, EZH2^GOF DLBCL cells also have increased DNA repair compared to EZH2^WT DLBCL cells (FIG. 34A), which can also be targeted by HDAC1,2 inhibitor as it impairs the HDAC1,2 regulated DNA repair processes used by EZH2^GOF DLBCL cells for their survival.

Q: What does the source list for `COc1cccc2c1C(=O)c1c(O)c3c(c(O)c1C2=O)C[C@@](O)(C(=O)CO)C[C@@H]3O[C@H]1C[C@H](N)[C@H](O)[C@H](C)O1` [doxorubicin, reference compound]?
A: DSBs, comet tail moment [1]: far less sensitive to doxorubicin; human CD45 and CD19 markers in bone marrow [2]: significant reduction in the human CD45 and CD19 markers; white cell burden [2]: decrease in the white cell burden; morphology of bone marrow and spleen cells [3]: No changes in the morphology of spleen or bone marrow cells; also recorded: no abnormalities or changes in the cell morphology in bone marrow or spleens; human CD19 and IgM population in peripheral blood [4]: no significant change in these markers; leukemia burden [5]: significantly decreased leukemia burden; increase in the percentage of cells in G2/M phase (Karpas-422 cells; 50 nM doxorubicin): 1.5 to 2 fold; cell death / sub-G1 population (Karpas-422 cells; 2 μM ACY-957, 50 nM doxorubicin or both): modest increase in cell death

Q: For `Nc1ccc(-c2cccs2)cc1NC(=O)c1ccc2c(c1)cc(C1CC1)n2CCN1CCOCC1` [ACY-1035, N-(2-amino-5-(thiophen-2-yl)phenyl)-2-cyclopropyl-1-(2-morpholinoethyl)-1H-indole-5-carboxamide], which “γH2AX on the nascent chromatin” value (SupB15 cells [6]) is on record?
A: increase in γH2AX on the nascent chromatin

Q: And the “inhibition of Hdac1,2 activities compared to Hdac3 (IC50 values)” value (Hdac1,2)?
A: very selectively

Q: And the “toxic effects in vivo” value [7]?
A: does not have toxic effects in vivo

Q: And the “human CD45 and CD19 markers in bone marrow” value [2]?
A: significant reduction in the human CD45 and CD19 markers; also recorded: greater decrease in the human leukemia markers when compared to doxorubicin-treated mice

Q: What about the white cell burden [2] of the same compound?
A: decrease in the white cell burden

Q: What about the “DNA damage, quantitation of γH2AX foci” value [8] of the same compound?
A: statistically significant increase in DNA damage

Q: What about the “morphology of bone marrow and spleen cells” value [3] of the same compound?
A: No changes in the morphology of spleen or bone marrow cells; also recorded: no abnormalities or changes in the cell morphology in bone marrow or spleens

Q: And the “human CD19 and IgM population in peripheral blood” value [4]?
A: significant decrease in human CD19 and IgM population in peripheral blood

Q: And the “damaged DNA (comet tail)” value (SupB15 cells [9])?
A: increase in damaged DNA

Q: What about the cell death [10] of the same compound?
A: did not cause any cell death
